Data as given in patent US20090117406A1, “CONCENTRATE FOR FILM PRESERVATION” (priority 2006, published 2009).

Key:
[1] = tested on: Alternaria alternata DSM 62010 and Ulocladium consortial DSM 6201; experiment: Fungicide trial with weathering on plaster test pieces (VdL guideline 06), fungus mix 1; type: cell-based; conditions: rating after 21 days 0 or 1, for mixtures order of ppm follows order of active agents
Protocol: (§1) The sample to be tested is plaster. The untreated sample is equipped with the cited biocides or single active agents in different concentrations. […] For preparing the samples the plaster is equipped with biocides and from that test pieces are formed. For that purpose for each test piece 7 g plaster are weighed in a small plastic mould and spread evenly. For complete drying the plaster test pieces are stored for three days at room temperature. The prepared test bodies are put in 100 ml tap water each for three days the water being exchanged daily. Then a 15 h phase of drying follows in a circulation air cabinet at 50° C. and 60 circles/min. After three days of equi libration at room temperature the test pieces are sterilised superficially and brought in the biological test. The superficial sterilisation is carried directly before putting them on the nutritive substratum by a exposure to UV radiation on both sides each for 10 minutes under a mercury medium pressure radiator. The evaluations for fungus are carried out on malt extract agar (for example by Fluka). For mix 1 Alternaria alternata DSM 62010 and Ulocladium consortial DSM 6201 is used. For mix 2 Aspergillus niger DSM 1988, Penicillium expansum DSM 1282 and Trichoderma viride DSM 63064 is used. These are used as about 14 days old cultures on inclined agar tubes for producing suspension. For that purpose to each tube 3 ml sterile Ringer's solution are added, and then washed away with a sterile os (this corresponds with a germination index of about 10^8 to 10^9 KBE/ml [KBE=(Kolonie bildende Einheiten) units forming colonies]). […] The nutritive substratum with the put-on test pieces is injected with one of the listed fungus mixtures and incubated at room temperature. After 7, 14 and 21 days the test pieces are evaluated with respect to the fungus growth according to the following rating: 00=sample surface without fouling, with inhibitory aureole around test piece 0=sample surface without fouling, without inhibitory aureole around test piece […] […]

[2] = tested on: Aspergillus niger DSM 1988, Penicillium expansum DSM 1282 and Trichoderma viride DSM 63064; experiment: Fungicide trial with weathering on plaster test pieces (VdL guideline 06), fungus mix 2; type: cell-based; conditions: rating after 21 days 0 or 1, for mixtures order of ppm follows order of active agents
Protocol: as §1

SMILES | ppm a.i. in plaster dosed additionally (minimal ppm concentration as fungus growth is obstructed clearly) [1] [ppm] | ppm a.i. in plaster dosed additionally (minimal ppm concentration as fungus growth is obstructed clearly) [2]
N#Cc1c(Cl)c(Cl)c(Cl)c(C#N)c1Cl [CTL, 1,3-dicyano-2,4,5,6-tetrachlorbenzole] | 400 | 800 ppm
CCCCCCCCn1sccc1=O [OIT, 2-octyl-2H-isothiazole-3-one] | 200 | >500(#) ppm
CCCC1COC(Cn2cncn2)(c2ccc(Cl)cc2Cl)O1 (stereo not drawn) [Propiconazol, 1-[[2-(2,4-dichlorphenyl)-4-propyl-1,3-dioxolane-2-yl]methyl] 1 H-1,2,4-triazol] | 2000 | >2000(#) ppm
